Experimental findings from US10738074B2, “Cyclic di-nucleotide compounds as STING agonists” (Merck Sharp & Dohme Corp., priority 2015, dated 2020) are described below.

As a reminder, the EC50 is the concentration that produces a half-maximal response. High values mean a need for much substance, low ones an effect from little substance.

A value given as a limit tells only on which side of the number the result lay.

Test [1] concerns the target full-length HAQ STING (Homo sapiens (Human), UniProt Q86WV6, G230A/H232R/R293Q/R71H). Nature of the test: 3H-cGAMP filtration binding assay (HAQ STING). To be noted: competition with tritiated cGAMP, HAQ STING membrane. An excerpt:
The ability of compounds to bind STING is quantified by the ability to compete with tritiated cGAMP ligand for human STING receptor membrane using a radioactive filter-binding assay. The binding assay employs STING receptor obtained from Hi-Five cell membranes overexpressing full-length HAQ STING prepared in-house and tritiated cGAMP ligand also purified in-house.
The ability of compounds to bind STING is quantified by their ability to compete with tritiated cGAMP ligand for human STING receptor membrane using a radioactive filter-binding assay. The binding assay employs STING receptor obtained from Trichoplusia ni cell membranes (Tni; Expression Systems, cat #94-002F, www.exrpressionsystems.com) overexpressing full-length HAQ STING prepared in-house and tritiated cGAMP ligand also purified in-house.
The basic HAQ STING filtration assay protocol is as follows:
Compound and membrane then preincubated for 60 min at RT to allow compound binding to equilibrate. Following equilibration, 8 nM of [^3H] c-GAMP ligand was prepared by diluting into assay buffer, and 50 uL of this working stock was then manually added to each well of the assay plate. […] The filter plates were then dried at 55° C. for 30 min using a pressurized VWR oven before 30 uL of Ultima GoldF scintillate was added to each well. Tritium levels for each reaction well were then measured using a PerkinElmer TopCount plate reader.
After normalization to controls, the percent activity for each compound concentration was calculated by measuring the amount of remaining radioactivity. The plot of percent activity versus the log of compound concentration was fit with a 4-parameter dose response equation to calculate EC50 values.

In test [2] the test system is THP1 cells. Nature of the test: IFN-β secretion in THP1 cell culture (5 h). It is filed as cell-based, human. To be noted: Homo sapiens, THP-1, 5 h, IFN-β secretion, THP1 cells, 5 h, 30 μM; read-out: % Effect at 30 μM relative to 2′3′-cGAMP. As for the experimental part:
The ability of compounds to stimulate the secretion of interferon-beta from THP1 cells was measured using a human IFN-β AlphaLISA kit (Perkin Elmer, Cat. No. AL265F). The basic protocol is as follows:
A Labcyte Echo 550 acoustic dispenser was used to transfer 120 nL of compound dissolved in DMSO into the wells of an empty, sterile 384-well microplate, (Corning, Cat. No. 3712). THP1 cells (American Type Culture Collection, Cat. No. TIB202) previously frozen in Recovery Medium (Life Technologies, Cat. No. 12648-010) were thawed and immediately diluted 10-fold into 37° C. assay medium (RPMI 1640+L-Glutamine & phenol red, Life Technologies, Cat. No. 11875-085; 0.5% heat inactivated fetal bovine serum, Sigma Aldrich, Cat. No. F4135; 1 mM Sodium Pyruvate, Life Technologies, Cat. No. 11360-070; lx non-essential amino acids; Life Technologies, Cat. No. 11140-050). The cell viability and count was ascertained using a Beckman Coulter V-Cell XR cell counter. The cells suspension was centrifuged at 200×g for 5 min at RT. Cells were resuspended to a density of 0.8×10^6/mL in 37° C. assay medium. Subsequent liquid transfers were performed using either a Matrix electronic multichannel pipette or an Agilent Bravo Automated Liquid Handling Platform.
The assay was started by dispensing 40 μL of the previously prepared cell suspension into the wells of the plate containing compounds. After 5 h incubation at 37° C., 5% CO2 in a humidified atmosphere, the plate of cells and compounds was centrifuged at 200×g for 5 min at RT. From each well, 5 μL of supernatant was transferred into corresponding wells of a white 384-well plate (Perkin Elmer, Cat. No. 6005620). To these supernatant-containing wells was added 10 μL of 5× Anti-Analyte Acceptor beads (50 μg/mL of AlphaLISA HiBlock Buffer) and incubated for 30 min at RT while shaking on an orbital plate shaker. To each well was added 10 μL of 5× Biotinylated Antibody Anti-analyte (5 nM in AlphaLISA HiBlock Buffer) and incubated on an orbital plate shaker for 60 min at RT or overnight at 4° C. To each well was added 25 μL of 2× SA-Donor beads (80 μg/mL in AlphaLISA HiBlock Buffer) and incubated for 30-45 min at RT in the dark while shaking on an orbital plate shaker. The plate was then read on a Perkin Elmer Envision (λex=680 nm, λem=[…]). The percent effect of the AlphaLISA signal at each compound concentration was calculated based on 30 uM cGAMP positive controls and 0.3% DMSO negative controls. The plot of percent effect versus the log of compound concentration was fit with a 4-parameter concentration response equation to calculate EC50 values. The test compounds were tested at concentrations 30000, 10000, 3333, 1111, 370.4, 123.4, 41.2, 13.7, 4.6, and 1.5 nM with 0.3% residual DMSO.
Compounds of the disclosure were evaluated for IFN-β secretion in THP1 cell culture as described above. The following table tabulates the biological data for these compounds as percent activation relative to 2′3′-cGAMP at the 30 μM concentration.

full-length HAQ STING, sequence (Q86WV6 other isoform, or with tags, fused parts or gaps, stated change not applied): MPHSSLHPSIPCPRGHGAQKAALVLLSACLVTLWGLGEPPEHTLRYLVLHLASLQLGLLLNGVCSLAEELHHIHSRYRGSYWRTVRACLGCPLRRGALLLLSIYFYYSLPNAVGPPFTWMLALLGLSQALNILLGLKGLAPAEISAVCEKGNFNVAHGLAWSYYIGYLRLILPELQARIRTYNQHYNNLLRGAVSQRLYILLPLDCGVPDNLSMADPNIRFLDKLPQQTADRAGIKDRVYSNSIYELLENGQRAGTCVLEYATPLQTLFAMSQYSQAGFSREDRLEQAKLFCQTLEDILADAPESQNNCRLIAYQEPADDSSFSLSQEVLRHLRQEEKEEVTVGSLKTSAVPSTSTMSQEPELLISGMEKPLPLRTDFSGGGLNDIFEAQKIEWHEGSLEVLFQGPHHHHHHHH

For the molecule `C[C@@H]1OP(=O)(O)O[C@@H]2[C@H](F)[C@@H](COP(=O)(O)O[C@@H]3[C@H](O)[C@@H]1O[C@H]3n1cnc3c(N)ncnc31)O[C@H]2n1cnc2c(=O)[nH]c(N)nc21` [Example 8, 2-amino-9-[(1R,6R,8R,9S,13S,14S,16R,17R,18R)-16-(6-amino-9H-purin-9-yl)-18-fluoro-3,11,17-trihydroxy-13-methyl-3,11-dioxido-2,4,7,10,12,15-hexaoxa-3,11-diphosphatricyclo[12.2.1.16,9]octadec-8-yl]-1,9-dihydro-6H-purin-6-one], the EC50 in test [1] stood at 102 nM. Besides, the activation at 30 µM in test [2] was 36%.

`Nc1nc2c(ncn2[C@@H]2O[C@@H]3COP(=O)(O)O[C@@H]4C[C@@H](COP(=O)(O)O[C@@H]2[C@@H]3F)O[C@H]4n2cnc3c(N)ncnc32)c(=O)[nH]1` [Example 9, 2-amino-9-[(1R,6R,8R,9S,14S,16R,18R)-16-(6-amino-9H-purin-9-yl)-18-fluoro-3,11-dihydroxy-3,11-dioxido-2,4,7,10,12,15-hexaoxa-3,11-diphosphatricyclo[12.2.1.1^6,9]octadec-8-yl]-1,9-dihydro-6H-purin-6-one]: in test [1], the EC50 was found to be 3.7 nM. The activation at 30 µM in test [2] came out at 115%.

In test [1], `Nc1nc2c(ncn2[C@@H]2O[C@@H]3COP(=O)(O)O[C@@H]4[C@H](F)[C@@H](COP(=O)(O)O[C@@H]2[C@@H]3F)O[C@H]4n2cnc3c(N)ncnc32)c(=O)[nH]1` [Example 11, 2-amino-9-[(1S,6R,8R,9S,14R,16R,17R,18R)-16-(6-amino-9H-purin-9-yl)-17,18-difluoro-3,11-dihydroxy-3,11-dioxido-2,4,7,10,12,15-hexaoxa-3,11-diphosphatricyclo[12.2.1.1^6,9]octadec-8-yl]-1,9-dihydro-6H-purin-6-one] came in with an EC50 of under 1 nM. Further, in test [2], the activation at 30 µM is 131%.

Consider `Nc1nc2c(ncn2[C@@H]2O[C@@H]3COP(=O)(O)O[C@@H]4C[C@@H](COP(=O)(O)O[C@@H]2C3)O[C@H]4n2cnc3c(N)ncnc32)c(=O)[nH]1` [Example 12, 2-amino-9-[(1R,6S,8R,9R,14S,16R)-16-(6-amino-9H-purin-9-yl)-3,11-dihydroxy-3,11-dioxido-2,4,7,10,12,15-hexaoxa-3,11-diphosphatricyclo[12.2.1.1^6,9]octadec-8-yl]-1,9-dihydro-6H-purin-6-one], for which the 50% effective concentration (EC50) in test [1] was 674 nM. In test [2], the activation at 30 µM is 50%.

`Nc1nc2c(ncn2[C@@H]2O[C@@H]3COP(=O)(O)O[C@@H]4[C@@H](F)[C@@H](COP(=O)(O)O[C@@H]2[C@@H]3F)O[C@H]4n2cnc3c(N)ncnc32)c(=O)[nH]1` [Example 13, 2-amino-9-[(1S,6R,8R,9S,14R,16R,17S,18R)-16-(6-amino-9H-purin-9-yl)-17,18-difluoro-3,11-dihydroxy-3,11-dioxido-2,4,7,10,12,15-hexaoxa-3,11-diphosphatricyclo[12.2.1.1^6,9]octadec-8-yl]-1,9-dihydro-6H-purin-6-one] yielded a half-maximal effective concentration (EC50) in test [1] of 11.2 nM. In test [2], the activation at 30 µM is 128%.

For the molecule `Nc1ncnc2c1ncn2[C@@H]1O[C@@H]2COP(=O)(S)O[C@@H]3[C@H](O)[C@@H](COP(=O)(S)O[C@@H]1[C@@H]2O)O[C@H]3n1cnc2c(N)ncnc21` (stereo partly drawn) [Example 27, (1R,6R,8R,9R,14R,16R,17R,18R)-8,16-bis(6-amino-9H-purin-9-yl)-3,11-disulfanyl-2,4,7,10,12,15-hexaoxa-3,11-diphosphatricyclo[12.2.1.1^6,9]octadecane-17,18-diol 3,11-dioxide], the EC50 in test [1] was 6.6 nM. Also, the activation at 30 µM in test [2] was 76%.

On to `Nc1nc2c(ncn2[C@@H]2O[C@@H]3COP(=O)(O)O[C@@H]4[C@H](N)[C@@H](COP(=O)(O)O[C@@H]2[C@@H]3O)O[C@H]4n2cnc3c(N)ncnc32)c(=O)[nH]1` [Example 33, 2-amino-9-[(1R,6R,8R,9R,14S,16R,17R,18R)-17-amino-16-(6-amino-9H-purin-9-yl)-3,11,18-trihydroxy-3,11-dioxido-2,4,7,10,12,15-hexaoxa-3,11-diphosphatricyclo[12.2.1.1^6,9]octadec-8-yl]-1,9-dihydro-6H-purin-6-one], for which a half-maximal response in test [1] (EC50) required 1.6 nM. Moreover, in test [2], the activation at 30 µM was found to be 140%.
